Toxic doses and inconclusive results are not listed. Cut-off read from the data, not from the text of the source: active = T/C of 150% or more; inactive = T/C below 125%.
System: L1210 leukemia ip in BDF1 mice, survival T/C
Assay: NCI In Vivo Anticancer Drug Screen. Data for tumor model L1210 Leukemia (intraperitoneal) in B6D2F1 (BDF1) mice
Conditions: endpoint: mean survival time, higher = longer survival
How it was run: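 In this screen, tumor-bearing mice given compound are compared to those given vehicle, and their survival values are reported as a treated-to-control quotient.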

[1] = dose: 50.0 mg/kg/injection, schedule: Q01DX001 (ip), vehicle: saline
[2] = dose: 50.0 mg/kg/injection, schedule: Q01DX009 (ip), vehicle: saline with Tween-80
[3] = dose: 100.0 mg/kg/injection, schedule: Q01DX001 (ip), vehicle: saline
[4] = dose: 100.0 mg/kg/injection, schedule: Q01DX009 (ip), vehicle: saline with Tween-80
[5] = dose: 100.0 mg/kg/injection, schedule: Q04DX003 (ip), vehicle: saline with Tween-80
[6] = dose: 200.0 mg/kg/injection, schedule: Q01DX001 (ip), vehicle: saline
[7] = dose: 200.0 mg/kg/injection, schedule: Q01DX009 (ip), vehicle: saline with Tween-80
[8] = dose: 200.0 mg/kg/injection, schedule: Q04DX003 (ip), vehicle: saline with Tween-80
[9] = dose: 400.0 mg/kg/injection, schedule: Q01DX001 (ip), vehicle: saline
[10] = dose: 100.0 mg/kg/injection, schedule: Q01DX009 (ip), vehicle: Klucel (hydroxypropylcellulose) (HPC)
[11] = dose: 100.0 mg/kg/injection, schedule: Q04DX003 (ip), vehicle: Klucel (hydroxypropylcellulose) (HPC)
[12] = dose: 200.0 mg/kg/injection, schedule: Q01DX009 (ip), vehicle: Klucel (hydroxypropylcellulose) (HPC)
[13] = dose: 200.0 mg/kg/injection, schedule: Q04DX003 (ip), vehicle: Klucel (hydroxypropylcellulose) (HPC)
[14] = dose: 400.0 mg/kg/injection, schedule: Q01DX009 (ip), vehicle: Klucel (hydroxypropylcellulose) (HPC)
[15] = dose: 400.0 mg/kg/injection, schedule: Q04DX003 (ip), vehicle: Klucel (hydroxypropylcellulose) (HPC)
[16] = dose: 100.0 mg/kg/injection, schedule: Q04DX002 (ip), vehicle: Klucel (hydroxypropylcellulose) (HPC)
[17] = dose: 200.0 mg/kg/injection, schedule: Q04DX002 (ip), vehicle: Klucel (hydroxypropylcellulose) (HPC)
[18] = dose: 100.0 mg/kg/injection, schedule: Q01DX001 (ip), vehicle: carboxymethylcellulose (CMC)
[19] = dose: 200.0 mg/kg/injection, schedule: Q01DX001 (ip), vehicle: carboxymethylcellulose (CMC)
[20] = dose: 400.0 mg/kg/injection, schedule: Q04DX003 (ip), vehicle: saline with Tween-80
[21] = dose: 100.0 mg/kg/injection, schedule: Q04DX003 (ip), vehicle: saline
[22] = dose: 200.0 mg/kg/injection, schedule: Q04DX003 (ip), vehicle: saline
[23] = dose: 400.0 mg/kg/injection, schedule: Q04DX003 (ip), vehicle: saline
[24] = dose: 100.0 mg/kg/injection, schedule: Q01DX001 (ip), vehicle: other
[25] = dose: 200.0 mg/kg/injection, schedule: Q01DX001 (ip), vehicle: other
[26] = dose: 400.0 mg/kg/injection, schedule: Q01DX001 (ip), vehicle: other
[27] = dose: 400.0 mg/kg/injection, schedule: Q01DX009 (ip), vehicle: saline with Tween-80

Measured: T/C

CN(C)Cc1ccncc1
inactive: [1] 101 % of control | [2] 93 % of control | dose: 50.0 mg/kg/injection, schedule: Q04DX003 (ip), vehicle: saline with Tween-80 92 % of control | [3] 101 % of control | [4] 101 % of control | [5] 92 % of control | [6] 101 % of control | [7] 96 % of control | [8] 95 % of control

CC(C(O)c1ccc(Cl)cc1)C(O)(C(F)(F)F)C(F)(F)F (stereo unspecified)
inactive: dose: 75.0 mg/kg/injection, schedule: Q01DX009 (ip), vehicle: saline with Tween-80 100 % of control | dose: 150.0 mg/kg/injection, schedule: Q01DX009 (ip), vehicle: saline with Tween-80 110 % of control | dose: 300.0 mg/kg/injection, schedule: Q01DX009 (ip), vehicle: saline with Tween-80 101 % of control

NC(N)=N/N=C\c1c[nH]c2ccc(Br)cc12
inactive: dose: 15.0 mg/kg/injection, schedule: Q01DX Z (ip), vehicle: saline 96 % of control | dose: 30.0 mg/kg/injection, schedule: Q01DX Z (ip), vehicle: saline 113 % of control | dose: 60.0 mg/kg/injection, schedule: Q01DX Z (ip), vehicle: saline 103 % of control | dose: 120.0 mg/kg/injection, schedule: Q01DX Z (ip), vehicle: saline 106 % of control | dose: 240.0 mg/kg/injection, schedule: Q01DX Z (ip), vehicle: saline 98 % of control | dose: 240.0 mg/kg/injection, schedule: Q01DX Z (oral), vehicle: saline 94 % of control | dose: 480.0 mg/kg/injection, schedule: Q01DX Z (oral), vehicle: saline 94 % of control

C=C[Si](C)(OCC)OCC
inactive: [3] 93 % of control | [6] 90 % of control | [9] 101 % of control

CC(C)(CBr)COC(=O)Nc1ccc2ccccc2c1
inactive: [2] 95 % of control | [4] 95 % of control | [7] 88 % of control

CNC(=O)Oc1cccc(C)c1
inactive: dose: 25.0 mg/kg/injection, schedule: Q01DX009 (ip), vehicle: saline with Tween-80 97 % of control | [2] 94 % of control

c1ccc2c3c([nH]c2c1)C1CC2CCCCC2CN1CC3 (stereo unspecified)
inactive: dose: 75.0 mg/kg/injection, schedule: Q01DX001 (ip), vehicle: saline 107 % of control | dose: 150.0 mg/kg/injection, schedule: Q01DX001 (ip), vehicle: saline 109 % of control

CC(=O)Nc1cccc2ccc([N+](=O)[O-])cc12
inactive: [10] 96 % of control | [11] 94 % of control | [12] 98 % of control | [13] 105 % of control | [14] 98 % of control | [15] 98 % of control

CC1(C)C(=NNc2ccc([N+](=O)[O-])cc2[N+](=O)[O-])C(C)(C)C1(Cl)Cl
inactive: dose: 50.0 mg/kg/injection, schedule: Q04DX002 (ip), vehicle: Klucel (hydroxypropylcellulose) (HPC) 97 % of control | [16] 118 % of control | [17] 105 % of control

CCOC(=O)C[n+]1cccc(Br)c1
inactive: [18] 91 % of control | [19] 104 % of control | dose: 400.0 mg/kg/injection, schedule: Q01DX001 (ip), vehicle: carboxymethylcellulose (CMC) 104 % of control

Cc1cc(NC(=O)NCc2ccc([N+](=O)[O-])cc2)ccc1S(=O)(=O)F
inactive: [5] 100 % of control | [8] 95 % of control | [20] 92 % of control

CN(C=O)c1cc([N+](=O)[O-])ccc1OCc1ccccc1
inactive: [1] 100 % of control | [3] 96 % of control | [6] 92 % of control | [9] 94 % of control

CCOC(=O)N/N=C/c1c(F)cccc1Cl
inactive: dose: 75.0 mg/kg/injection, schedule: Q01DX001 (ip), vehicle: carboxymethylcellulose (CMC) 101 % of control | dose: 150.0 mg/kg/injection, schedule: Q01DX001 (ip), vehicle: carboxymethylcellulose (CMC) 106 % of control | dose: 300.0 mg/kg/injection, schedule: Q01DX001 (ip), vehicle: carboxymethylcellulose (CMC) 101 % of control

S=c1nc(-c2ccccc2)c(-c2ccccc2)n[nH]1
inactive: [21] 100 % of control | [22] 98 % of control | [23] 98 % of control

BrC1(c2ccccc2)C(c2ccccc2)=C1c1ccccc1
inactive: dose: 50.0 mg/kg/injection, schedule: Q01DX001 (ip), vehicle: carboxymethylcellulose (CMC) 94 % of control | [18] 94 % of control | [19] 96 % of control

Nc1nc(N)c2cc(CNc3ccc(Cl)c(C(=O)NC(CC(=O)O)C(=O)O)c3)cnc2n1 (stereo unspecified)
inactive: dose: 100.0 mg/kg/injection, schedule: Q01DX009 (ip), vehicle: saline 95 % of control | [21] 106 % of control | dose: 200.0 mg/kg/injection, schedule: Q01DX009 (ip), vehicle: saline 94 % of control | [22] 93 % of control | dose: 400.0 mg/kg/injection, schedule: Q01DX009 (ip), vehicle: saline 89 % of control | [23] 97 % of control

NC(=O)C[n+]1cccc(C(N)=O)c1
inactive: [21] 97 % of control | [22] 101 % of control | [23] 101 % of control

CC/C(C)=N/Nc1ccc([N+](=O)[O-])cc1[N+](=O)[O-]
inactive: [24] 94 % of control | [25] 94 % of control | [26] 97 % of control

C=C1c2ccccc2N(C)C1(COc1ccc(Br)cc1)OC(=O)c1cccc(Cl)c1 (stereo unspecified)
inactive: [16] 95 % of control | [17] 95 % of control | dose: 400.0 mg/kg/injection, schedule: Q04DX002 (ip), vehicle: Klucel (hydroxypropylcellulose) (HPC) 98 % of control

CC(=O)N(C)Nc1ccccc1
inactive: [4] 116 % of control | [5] 91 % of control | [7] 97 % of control | [8] 91 % of control | [27] 90 % of control | [20] 106 % of control

O=C(O)C(Cc1ccc(O)cc1)N(S(=O)(=O)Cc1ccccc1)S(=O)(=O)Cc1ccccc1 (stereo unspecified)
inactive: [24] 88 % of control | dose: 100.0 mg/kg/injection, schedule: Q04DX003 (ip), vehicle: other 95 % of control | [25] 97 % of control | dose: 200.0 mg/kg/injection, schedule: Q04DX003 (ip), vehicle: other 98 % of control | [26] 108 % of control | dose: 400.0 mg/kg/injection, schedule: Q04DX003 (ip), vehicle: other 88 % of control

O=C1CCC(c2ccccc2)=NN1c1ccccc1
inactive: [10] 96 % of control | [12] 90 % of control | [14] 96 % of control

Cc1cc(=O)n(-c2ccccc2)c2ccccc12
inactive: [3] 103 % of control | [6] 97 % of control | [9] 100 % of control

COc1ccc(C(C)=O)c(O)c1C
inactive: [4] 111 % of control | [7] 94 % of control | [27] 92 % of control

CCCCCN(CCCCC)C(=O)c1ccc([N+](=O)[O-])cc1
inactive: [10] 97 % of control | [11] 100 % of control | [12] 97 % of control | [13] 96 % of control | [14] 94 % of control | [15] 105 % of control

O=S(=O)(Cl)c1cc(Cl)ccc1Cl
inactive: dose: 25.0 mg/kg/injection, schedule: Q01DX009 (ip), vehicle: Klucel (hydroxypropylcellulose) (HPC) 95 % of control | dose: 50.0 mg/kg/injection, schedule: Q01DX009 (ip), vehicle: Klucel (hydroxypropylcellulose) (HPC) 98 % of control | [10] 97 % of control

O=C(Nc1cccc(F)c1)Nc1ncccn1
inactive: [4] 90 % of control | [7] 86 % of control | [27] 100 % of control

CCCCNC(=O)NC/C(Br)=C/Br
inactive: dose: 75.0 mg/kg/injection, schedule: Q01DX009 (ip), vehicle: Klucel (hydroxypropylcellulose) (HPC) 101 % of control | [11] 98 % of control | dose: 150.0 mg/kg/injection, schedule: Q01DX009 (ip), vehicle: Klucel (hydroxypropylcellulose) (HPC) 100 % of control | [13] 96 % of control | dose: 300.0 mg/kg/injection, schedule: Q01DX009 (ip), vehicle: Klucel (hydroxypropylcellulose) (HPC) 97 % of control | [15] 93 % of control

Source: PubChem BioAssay AID248 (DTP/NCI, 2004)
